Assay results published in ChEMBL document CHEMBL4507275, “Data for DCP probe BI-2545” (2021).

Key:
[1] = target: Kappa-type opioid receptor (Rattus norvegicus) (UniProt P34975); assay: KAPPA/R Cerep selectivity data (BI); conditions: Compound concentration 10.0 uM
[2] = target: Muscarinic acetylcholine receptor M1 (Homo sapiens) (UniProt P11229); conditions: Compound concentration 10.0 uM
[3] = target: Neuronal acetylcholine receptor; alpha4/beta2 (Homo sapiens) (UniProt P17787+P43681); assay: N_NEURO_A4B2 Cerep selectivity data (BI); type: protein-complex assay; conditions: filed as agonist, Compound concentration 10.0 uM
[4] = target: Glutamate receptor ionotropic, NMDA 2A (Rattus norvegicus) (UniProt Q00959); assay: NMDA/R Cerep selectivity data (BI); conditions: Compound concentration 10.0 uM
[5] = target: 5-hydroxytryptamine receptor 2A (Homo sapiens, UniProt P28223); assay: 5HT2AH_AGON Cerep selectivity data (BI); conditions: filed as agonist, Compound concentration 10.0 uM
[6] = target: Glucocorticoid receptor (Homo sapiens) (UniProt P04150); assay: GCORTICOID/H Cerep selectivity data (BI); conditions: Compound concentration 10.0 uM
Chain of Glucocorticoid receptor (Homo sapiens) (P04150 whole entry): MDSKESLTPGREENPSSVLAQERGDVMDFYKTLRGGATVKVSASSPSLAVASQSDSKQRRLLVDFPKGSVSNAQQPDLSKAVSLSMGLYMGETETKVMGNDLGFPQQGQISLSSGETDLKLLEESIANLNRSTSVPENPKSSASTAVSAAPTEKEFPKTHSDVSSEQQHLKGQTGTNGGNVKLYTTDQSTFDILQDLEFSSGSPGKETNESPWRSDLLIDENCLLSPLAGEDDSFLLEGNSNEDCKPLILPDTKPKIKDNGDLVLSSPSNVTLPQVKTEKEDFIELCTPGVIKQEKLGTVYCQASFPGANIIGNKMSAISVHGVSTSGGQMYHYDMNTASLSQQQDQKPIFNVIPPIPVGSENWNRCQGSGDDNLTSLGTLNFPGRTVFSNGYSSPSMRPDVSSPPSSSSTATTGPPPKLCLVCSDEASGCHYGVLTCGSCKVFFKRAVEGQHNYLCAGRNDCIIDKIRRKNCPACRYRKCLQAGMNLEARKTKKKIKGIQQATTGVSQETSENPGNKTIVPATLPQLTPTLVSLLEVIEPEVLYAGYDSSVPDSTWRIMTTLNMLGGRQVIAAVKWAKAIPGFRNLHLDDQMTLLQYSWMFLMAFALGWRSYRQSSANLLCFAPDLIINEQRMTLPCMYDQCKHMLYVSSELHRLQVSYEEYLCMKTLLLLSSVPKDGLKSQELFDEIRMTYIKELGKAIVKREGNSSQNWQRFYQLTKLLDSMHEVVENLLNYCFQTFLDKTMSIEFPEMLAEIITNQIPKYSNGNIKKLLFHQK

[7] = target: T1, Muscarinic acetylcholine receptor M2 (Homo sapiens) (UniProt P08172); assay: M2/H Cerep selectivity data (BI); conditions: filed as antagonist, Compound concentration 10.0 uM
T1 sequence (whole entry): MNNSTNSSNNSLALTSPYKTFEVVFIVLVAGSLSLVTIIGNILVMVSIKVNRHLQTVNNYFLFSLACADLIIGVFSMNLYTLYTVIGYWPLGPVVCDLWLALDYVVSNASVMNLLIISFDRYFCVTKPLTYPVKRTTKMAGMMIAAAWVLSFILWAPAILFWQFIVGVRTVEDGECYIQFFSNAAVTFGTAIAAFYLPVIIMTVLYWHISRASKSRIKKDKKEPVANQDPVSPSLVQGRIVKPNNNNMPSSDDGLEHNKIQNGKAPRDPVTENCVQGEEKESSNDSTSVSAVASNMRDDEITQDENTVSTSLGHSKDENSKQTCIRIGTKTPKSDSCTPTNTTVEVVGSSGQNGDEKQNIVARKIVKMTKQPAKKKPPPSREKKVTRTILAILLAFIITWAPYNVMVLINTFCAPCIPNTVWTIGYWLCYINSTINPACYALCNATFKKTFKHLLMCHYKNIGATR

[8] = target: 5-hydroxytryptamine receptor 2B (Homo sapiens) (UniProt P41595); assay: 5HT2B/H AG Cerep selectivity data (BI); conditions: filed as agonist, Compound concentration 10.0 uM
Chain of 5-hydroxytryptamine receptor 2B (Homo sapiens) (P41595 whole entry): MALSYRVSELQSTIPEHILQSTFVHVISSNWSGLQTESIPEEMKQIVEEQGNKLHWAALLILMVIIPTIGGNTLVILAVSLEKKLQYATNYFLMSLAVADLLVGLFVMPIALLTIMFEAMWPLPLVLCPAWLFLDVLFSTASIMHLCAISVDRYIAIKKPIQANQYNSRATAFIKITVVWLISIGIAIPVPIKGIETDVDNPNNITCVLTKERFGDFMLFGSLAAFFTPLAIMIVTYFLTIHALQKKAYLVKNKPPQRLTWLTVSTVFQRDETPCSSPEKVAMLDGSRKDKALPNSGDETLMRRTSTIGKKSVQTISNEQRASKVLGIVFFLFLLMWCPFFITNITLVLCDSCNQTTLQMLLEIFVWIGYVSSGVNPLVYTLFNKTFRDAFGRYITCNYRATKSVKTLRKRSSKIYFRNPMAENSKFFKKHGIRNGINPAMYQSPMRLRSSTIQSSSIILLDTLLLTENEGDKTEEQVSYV

[9] = target: Adenosine receptor A2a (Homo sapiens) (UniProt P29274); assay: A2A/H Cerep selectivity data (BI); conditions: filed as antagonist, Compound concentration 10.0 uM
[10] = target: Delta-type opioid receptor (Homo sapiens) (UniProt P41143); assay: DELTA2/H Cerep selectivity data (BI); conditions: Compound concentration 10.0 uM
Chain of Delta-type opioid receptor (Homo sapiens) (P41143 whole entry): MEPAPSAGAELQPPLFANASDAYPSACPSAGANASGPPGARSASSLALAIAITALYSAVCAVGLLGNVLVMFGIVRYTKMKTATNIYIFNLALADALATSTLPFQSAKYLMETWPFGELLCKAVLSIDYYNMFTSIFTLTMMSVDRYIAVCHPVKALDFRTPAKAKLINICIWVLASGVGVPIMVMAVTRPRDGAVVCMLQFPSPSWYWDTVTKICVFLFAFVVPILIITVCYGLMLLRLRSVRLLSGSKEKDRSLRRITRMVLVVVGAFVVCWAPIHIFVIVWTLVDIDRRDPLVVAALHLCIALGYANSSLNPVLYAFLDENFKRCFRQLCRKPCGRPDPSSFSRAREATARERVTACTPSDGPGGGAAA

[11] = target: Sigma non-opioid intracellular receptor 1 (Homo sapiens, UniProt Q99720); assay: GPCRScan assay: inhibition of Sigma 1; parameters: radioligand conc. used [nm] 4.0 – 5.0, parental cells HEKT
Chain of Sigma non-opioid intracellular receptor 1 (Q99720 whole entry): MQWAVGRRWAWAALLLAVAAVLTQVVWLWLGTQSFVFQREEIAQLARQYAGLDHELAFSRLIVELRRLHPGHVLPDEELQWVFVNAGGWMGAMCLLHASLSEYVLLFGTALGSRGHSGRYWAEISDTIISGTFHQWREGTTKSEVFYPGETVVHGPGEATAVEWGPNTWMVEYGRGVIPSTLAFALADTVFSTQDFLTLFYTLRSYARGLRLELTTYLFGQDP

[12] = target: 5-hydroxytryptamine receptor 1B (Rattus norvegicus) (UniProt P28564); assay: 5HT1B/R Cerep selectivity data (BI); conditions: Compound concentration 10.0 uM
[13] = target: Mu-type opioid receptor (Homo sapiens) (UniProt P35372); assay: MU/H Cerep selectivity data (BI); conditions: Compound concentration 10.0 uM
Chain of Mu-type opioid receptor (Homo sapiens) (P35372 whole entry): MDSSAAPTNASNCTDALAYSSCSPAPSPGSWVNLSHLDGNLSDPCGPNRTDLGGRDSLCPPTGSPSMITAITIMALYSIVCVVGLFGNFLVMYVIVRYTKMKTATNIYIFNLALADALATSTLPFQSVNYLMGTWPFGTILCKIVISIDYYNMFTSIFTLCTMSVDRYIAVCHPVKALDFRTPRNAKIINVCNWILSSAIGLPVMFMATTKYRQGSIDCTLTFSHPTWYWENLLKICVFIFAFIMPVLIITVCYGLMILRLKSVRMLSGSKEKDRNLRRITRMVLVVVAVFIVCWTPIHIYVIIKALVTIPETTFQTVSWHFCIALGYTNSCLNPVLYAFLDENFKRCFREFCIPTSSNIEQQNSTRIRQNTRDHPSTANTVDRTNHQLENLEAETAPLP

[14] = target: Cannabinoid receptor 2 (Homo sapiens) (UniProt P34972); assay: CB2/PERIPH/H Cerep selectivity data (BI); conditions: Compound concentration 10.0 uM
[15] = target: Potassium voltage-gated channel subfamily V member 1 (Rattus norvegicus) (UniProt P97557); assay: K+/VOLT/RA Cerep selectivity data (BI); conditions: Compound concentration 10.0 uM
[16] = target: cGMP-inhibited 3',5'-cyclic phosphodiesterase 3A (Homo sapiens) (UniProt Q14432); assay: PDE3A Cerep selectivity data (BI); conditions: Compound concentration 10.0 uM
[17] = target: Prostaglandin G/H synthase 2 (Homo sapiens) (UniProt P35354); assay: COX-2 Cerep selectivity data (BI); conditions: Compound concentration 10.0 uM
[18] = target: Cholecystokinin receptor type A (Homo sapiens) (UniProt P32238); assay: CCKA/H Cerep selectivity data (BI); conditions: Compound concentration 10.0 uM
[19] = target: T2, Alpha-2A adrenergic receptor (Homo sapiens) (UniProt P08913); assay: ALPHA2A/HU Cerep selectivity data (BI); conditions: Compound concentration 10.0 uM
T2 sequence (whole entry): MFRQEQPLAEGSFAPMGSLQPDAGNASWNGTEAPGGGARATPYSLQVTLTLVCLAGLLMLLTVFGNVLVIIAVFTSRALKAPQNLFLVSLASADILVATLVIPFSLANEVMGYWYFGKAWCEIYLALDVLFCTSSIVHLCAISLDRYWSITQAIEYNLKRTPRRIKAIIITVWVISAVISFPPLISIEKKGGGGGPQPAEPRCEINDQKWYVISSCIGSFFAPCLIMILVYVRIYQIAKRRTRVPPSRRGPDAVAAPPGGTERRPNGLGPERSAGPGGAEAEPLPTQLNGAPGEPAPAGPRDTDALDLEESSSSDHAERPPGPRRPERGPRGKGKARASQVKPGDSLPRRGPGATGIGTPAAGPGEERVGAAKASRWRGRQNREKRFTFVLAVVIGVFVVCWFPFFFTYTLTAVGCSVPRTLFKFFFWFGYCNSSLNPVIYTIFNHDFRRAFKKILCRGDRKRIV

[20] = target: Beta-1 adrenergic receptor (Homo sapiens) (UniProt P08588); assay: BETA1/HUM Cerep selectivity data (BI); conditions: Compound concentration 10.0 uM
Chain of Beta-1 adrenergic receptor (Homo sapiens) (P08588 whole entry, looked up): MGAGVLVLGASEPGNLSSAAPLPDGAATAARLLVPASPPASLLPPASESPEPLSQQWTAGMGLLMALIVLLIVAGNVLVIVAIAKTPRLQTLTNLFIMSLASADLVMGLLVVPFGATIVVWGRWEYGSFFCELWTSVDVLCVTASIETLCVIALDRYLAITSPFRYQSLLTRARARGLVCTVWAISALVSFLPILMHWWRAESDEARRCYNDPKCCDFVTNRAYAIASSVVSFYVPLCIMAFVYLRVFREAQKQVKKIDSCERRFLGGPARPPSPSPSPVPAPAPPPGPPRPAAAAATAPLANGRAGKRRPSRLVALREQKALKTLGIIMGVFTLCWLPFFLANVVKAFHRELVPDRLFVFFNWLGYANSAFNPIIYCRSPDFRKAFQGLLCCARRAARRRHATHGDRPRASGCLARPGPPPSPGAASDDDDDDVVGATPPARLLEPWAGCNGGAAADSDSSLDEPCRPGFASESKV

[21] = target: Vasopressin V1a receptor (Homo sapiens) (UniProt P37288); assay: V1A/HUM Cerep selectivity data (BI); conditions: Compound concentration 10.0 uM
[22] = target: Sodium-dependent noradrenaline transporter (Homo sapiens) (UniProt P23975); assay: NEUP/H Cerep selectivity data (BI); conditions: Compound concentration 10.0 uM
Chain of Sodium-dependent noradrenaline transporter (Homo sapiens) (P23975 whole entry): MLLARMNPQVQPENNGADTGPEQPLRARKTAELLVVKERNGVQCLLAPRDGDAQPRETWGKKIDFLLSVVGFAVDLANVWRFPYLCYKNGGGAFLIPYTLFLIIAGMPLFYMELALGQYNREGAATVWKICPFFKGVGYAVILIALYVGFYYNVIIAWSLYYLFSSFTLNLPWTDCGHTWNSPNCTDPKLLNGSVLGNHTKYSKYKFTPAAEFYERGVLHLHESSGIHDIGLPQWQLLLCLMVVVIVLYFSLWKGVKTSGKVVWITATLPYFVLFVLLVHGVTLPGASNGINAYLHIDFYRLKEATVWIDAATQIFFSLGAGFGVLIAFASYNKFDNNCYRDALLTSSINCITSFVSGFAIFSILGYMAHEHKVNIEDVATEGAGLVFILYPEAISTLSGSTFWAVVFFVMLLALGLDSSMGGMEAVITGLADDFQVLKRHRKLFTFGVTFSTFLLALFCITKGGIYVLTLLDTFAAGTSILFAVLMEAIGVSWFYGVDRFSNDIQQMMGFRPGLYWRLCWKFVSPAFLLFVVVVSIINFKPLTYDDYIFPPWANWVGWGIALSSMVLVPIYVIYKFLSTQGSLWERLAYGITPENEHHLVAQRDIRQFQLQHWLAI

[23] = target: Sodium-dependent serotonin transporter (Homo sapiens) (UniProt P31645); assay: SLC6A4/H Cerep selectivity data (BI); conditions: filed as antagonist, Compound concentration 10.0 uM
[24] = target: Endothelin-1 receptor (Homo sapiens) (UniProt P25101); assay: ETA/H Cerep selectivity data (BI); conditions: Compound concentration 10.0 uM
[25] = target: Cannabinoid receptor 1 (Homo sapiens) (UniProt P21554); assay: CB1/CENTR/H Cerep selectivity data (BI); conditions: Compound concentration 10.0 uM
Chain of Cannabinoid receptor 1 (Homo sapiens) (P21554 whole entry): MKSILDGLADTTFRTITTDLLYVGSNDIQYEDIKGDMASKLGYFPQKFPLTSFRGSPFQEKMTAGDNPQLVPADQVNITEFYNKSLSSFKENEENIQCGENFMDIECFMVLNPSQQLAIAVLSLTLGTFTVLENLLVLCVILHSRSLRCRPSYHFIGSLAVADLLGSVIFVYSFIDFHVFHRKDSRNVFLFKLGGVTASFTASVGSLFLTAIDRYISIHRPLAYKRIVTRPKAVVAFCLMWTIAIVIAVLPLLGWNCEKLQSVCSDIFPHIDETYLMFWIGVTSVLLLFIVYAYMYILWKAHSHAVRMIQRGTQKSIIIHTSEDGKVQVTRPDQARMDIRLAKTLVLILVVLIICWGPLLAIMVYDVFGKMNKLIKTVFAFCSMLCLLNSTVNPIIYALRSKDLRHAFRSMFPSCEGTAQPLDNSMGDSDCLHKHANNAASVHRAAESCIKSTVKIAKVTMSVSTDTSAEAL

[26] = target: Sodium-dependent dopamine transporter (Homo sapiens) (UniProt Q01959); assay: DATRANS/HUM Cerep selectivity data (BI); conditions: Compound concentration 10.0 uM
[27] = target: D(1A) dopamine receptor (Homo sapiens) (UniProt P21728); assay: D1/H Cerep selectivity data (BI); conditions: filed as antagonist, Compound concentration 10.0 uM
Chain of D(1A) dopamine receptor (Homo sapiens) (P21728 whole entry): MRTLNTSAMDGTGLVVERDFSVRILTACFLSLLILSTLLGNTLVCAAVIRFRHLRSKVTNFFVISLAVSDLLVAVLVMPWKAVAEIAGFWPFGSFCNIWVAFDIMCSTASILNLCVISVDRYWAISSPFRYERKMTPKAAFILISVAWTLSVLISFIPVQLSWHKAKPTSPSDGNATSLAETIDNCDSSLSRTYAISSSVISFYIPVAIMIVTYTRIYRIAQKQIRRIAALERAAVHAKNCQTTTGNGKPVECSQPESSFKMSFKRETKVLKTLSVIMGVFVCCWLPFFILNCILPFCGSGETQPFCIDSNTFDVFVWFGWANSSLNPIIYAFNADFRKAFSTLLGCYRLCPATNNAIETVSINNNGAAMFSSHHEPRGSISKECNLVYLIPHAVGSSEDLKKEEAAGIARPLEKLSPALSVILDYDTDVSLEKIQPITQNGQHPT

[28] = target: Histamine H2 receptor (Homo sapiens) (UniProt P25021); assay: H2/APT/HS Cerep selectivity data (BI); conditions: filed as antagonist, Compound concentration 10.0 uM
[29] = target: D(2) dopamine receptor (Homo sapiens) (UniProt P14416); assay: D2SH_AGON Cerep selectivity data (BI); conditions: filed as agonist, Compound concentration 10.0 uM

Chain of Kappa-type opioid receptor (Rattus norvegicus) (P34975 whole entry): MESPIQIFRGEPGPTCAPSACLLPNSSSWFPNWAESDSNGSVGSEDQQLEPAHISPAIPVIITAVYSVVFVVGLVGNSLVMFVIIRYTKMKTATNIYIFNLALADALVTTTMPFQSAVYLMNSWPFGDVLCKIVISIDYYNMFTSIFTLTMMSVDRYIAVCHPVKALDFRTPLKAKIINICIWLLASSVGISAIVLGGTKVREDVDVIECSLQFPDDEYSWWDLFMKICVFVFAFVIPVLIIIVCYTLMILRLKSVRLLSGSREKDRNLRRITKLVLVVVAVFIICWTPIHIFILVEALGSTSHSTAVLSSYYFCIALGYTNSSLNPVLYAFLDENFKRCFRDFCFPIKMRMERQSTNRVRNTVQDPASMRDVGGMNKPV

O=C(NC[C@@H]1[C@H]2CN(C(=O)OCc3cc(C(F)(F)F)cc(C(F)(F)F)c3)C[C@@H]12)c1ccc2[nH]nnc2c1 [BI 2545]
residual activity [1]: 68% | inhibition [2]: -2.87% | residual activity [3]: 111% | residual activity [4]: 100% | residual activity [5]: 45% | residual activity [6]: 99% | residual activity [7]: 100% | residual activity [8]: 54% | residual activity [9]: 107% | residual activity [10]: 82% | Ki [11]: 3.55 µM | residual activity [12]: 92% | residual activity [13]: 67% | residual activity [14]: 77% | residual activity [15]: 103% | residual activity [16]: 76% | residual activity [17]: 81% | residual activity [18]: 51% | residual activity [19]: 86% | residual activity [20]: 98% | residual activity [21]: 80% | residual activity [22]: 39% | residual activity [23]: 66% | residual activity [24]: 92% | residual activity [25]: 95% | residual activity [26]: 57% | residual activity [27]: 92% | residual activity [28]: 110% | residual activity [29]: 97%
